Experimental data reported in ChEMBL document CHEMBL6103630, “Discovery of Novel 2,4,5-Trisubstituted Pyrimidine Derivatives as Potent and Selective FGFR Inhibitors against Gatekeeper Mutants for the Treatment of NSCLC” (J Med Chem, 2025).
Activity calls are given as the source filed them. The rule behind the calls is not given here.

Key:
NCI-H1581 [1] = assay: cells; conditions: Homo sapiens, NCI-H1581, 48 h
Description: Antiproliferative activity against human NCI-H1581 cells assessed as inhibition of cell proliferation incubated for 48 hrs by MTT assay

[2] = Cmax in male Sprague-Dawley rat at 10 mg/kg, po by UHPLC-MS/MS analysis; type: ADME, organism-based; conditions: in vivo
A549 [3] = assay: Inhibition of colony formation in human A549 cells at 0.25 to 1.0 uM incubated for 48 hrs by crystal violet staining based assay; type: functional, cell-based; conditions: dose 0.25-1 µM
Mus musculus [4] = assay: In vivo inhibition of AKT phosphorylation in BALB/c nude mouse xenografted with human NCI-H1581 cells assessed as reduction in AKT phosphorylation level in tumor by Western blotting analysis; type: functional, organism-based
[5] = Toxicity in ICR mouse assessed as change in heart weight at 80 mg/kg, po measured after 7 days; type: organism-based; conditions: in vivo, 168 h, time 7 day
[6] = Cmax in male Sprague-Dawley rat at 2 mg/kg, iv by UHPLC-MS/MS analysis; type: ADME, organism-based; conditions: in vivo
[7] = Toxicity in BALB/c nude mouse xenografted with human NCI-H1581 cells assessed as change in liver weight and measured after 14 days; conditions: 336 h, time 14 day
Mus musculus [8] = assay: In vivo inhibition of FGFR1 signaling pathway in BALB/c nude mouse xenografted with human NCI-H1581 cells assessed as reduction in FGFR1 phosphorylation level in tumor by Western blotting analysis; type: functional, organism-based
[9] = Toxicity in BALB/c nude mouse xenografted with human NCI-H1581 cells assessed as change in AST level at 60 mg/kg; type: organism-based; conditions: in vivo
[10] = Antitumor activity against rat L6 cells harboring FGFR V561M mutant xenografted in BALB/c nude mouse assessed as tumor growth inhibition at 30 mg/kg relative to control; type: functional; conditions: read-out: TGI
L6 = assay: Antitumor activity against rat L6 cells harboring FGFR1 V561M mutant xenografted in BALB/c nude mouse assessed as suppression of tumor cell proliferation at 30 to 60 mg/kg by Ki-67 staining based analysis; type: functional, organism-based; conditions: dose 30-60 mg/kg
[11] = target: Fibroblast growth factor receptor 3 (Homo sapiens, UniProt P22607, V555M)
[12] = target: Platelet-derived growth factor receptor beta (Homo sapiens) (UniProt P09619); assay: Inhibition of PDGFRbeta (unknown origin)
NCI-H1581 [13] = assay: Antitumor activity against human NCI-H1581 cells xenografted in BALB/c nude mouse assessed as inhibition of tumor cell proliferation by Ki-67 staining based analysis; type: functional
A549 [14] = assay: Inhibition of cell migration in human A549 cells at 10 to 40 nM incubated for 48 hrs by crystal violet staining based transwell assay; type: functional; conditions: dose 10-40 nM
[15] = Toxicity in BALB/c nude mouse xenografted with human NCI-H1581 cells assessed as change in lung weight and measured after 14 days; type: tissue-based; conditions: 336 h, time 14 day
[16] = Toxicity in BALB/c nude mouse xenografted with rat L6 cells harboring FGFR V561M mutant assessed as change in kidney weight at 30 to 60 mg/kg and measured daily for 14 days; type: organism-based; conditions: in vivo, 336 h, dose 30-60 mg/kg, time 14 day
[17] = Toxicity in BALB/c nude mouse xenografted with human NCI-H1581 cells assessed as change in spleen weight and measured after 14 days; conditions: 336 h, time 14 day
[18] = Toxicity in ICR mouse assessed as change in body weight at 80 mg/kg, po measured after 7 days; type: organism-based; conditions: in vivo, 168 h, time 7 day
[19] = target: Vascular endothelial growth factor receptor 2 (Homo sapiens) (UniProt P35968); assay: Inhibition of VEGFR2 (unknown origin)
[20] = Half life in male Sprague-Dawley rat at 2 mg/kg, iv by UHPLC-MS/MS analysis; type: ADME, organism-based; conditions: in vivo
[21] = Toxicity in ICR mouse assessed as change in spleen weight at 80 mg/kg, po measured after 7 days; type: organism-based; conditions: in vivo, 168 h, time 7 day
[22] = Toxicity in ICR mouse assessed as change in liver weight at 80 mg/kg, po measured after 7 days; type: organism-based; conditions: in vivo, 168 h, time 7 day
A549 [23] = assay: Inhibition of DNA replication in human A549 cells incubated for 1 hrs by EdU staining based analysis; type: functional, cell-based; conditions: dose 10-40 µM
[24] = target: T1, Fibroblast growth factor receptor 2 (Homo sapiens, UniProt P21802); assay: Binding affinity to FGFR2 (unknown origin) at 0.1 uM
Mus musculus [25] = assay: In vivo inhibition of AKT phosphorylation in BALB/c nude mouse xenografted with rat L6 cells harboring FGFR1 V561M mutant assessed as suppression of AKT level in tumor at 60 mg/kg by Western blotting analysis; type: functional, organism-based
[26] = target: Epidermal growth factor receptor (Homo sapiens) (UniProt P00533); assay: Inhibition of EGFR (unknown origin)
[27] = Toxicity in BALB/c nude mouse xenografted with rat L6 cells harboring FGFR V561M mutant assessed as change in liver weight at 30 to 60 mg/kg and measured daily for 14 days; type: organism-based; conditions: in vivo, 336 h, dose 30-60 mg/kg, time 14 day
[28] = target: T1, Fibroblast growth factor receptor 2; assay: Inhibition of wild type FGFR2 (unknown origin) by caliper mobility shift assay
NCI-H1581 [29] = assay: Inhibition of AKT (unknown origin) phosphorylation in human NCI-H1581 cells at 10 to 40 nM by Western blotting analysis; type: cell-based; conditions: dose 10-40 nM
[30] = Hepatotoxicity in ICR mouse assessed as change in ALT level at 80 mg/kg, po; type: toxicity, organism-based; conditions: in vivo
[31] = Toxicity in ICR mouse assessed as histopathological changes in kidney at 80 mg/kg, po by H and E staining based analysis; type: organism-based; conditions: in vivo
[32] = Toxicity in BALB/c nude mouse xenografted with rat L6 cells harboring FGFR V561M mutant assessed as change in lung weight at 30 to 60 mg/kg and measured daily for 14 days; type: organism-based; conditions: in vivo, 336 h, dose 30-60 mg/kg, time 14 day
NCI-H1581 [33] = assay: Inhibition of cell migration in human NCI-H1581 cells at 10 to 40 nM incubated for 48 hrs by crystal violet staining based transwell assay; type: functional; conditions: dose 10-40 nM
[34] = Antitumor activity against rat L6 cells harboring FGFR V561M mutant xenografted in BALB/c nude mouse assessed as tumor growth inhibition at 60 mg/kg relative to control; type: functional; conditions: read-out: TGI

Vascular endothelial growth factor receptor 2 (Homo sapiens), sequence (P35968 whole entry): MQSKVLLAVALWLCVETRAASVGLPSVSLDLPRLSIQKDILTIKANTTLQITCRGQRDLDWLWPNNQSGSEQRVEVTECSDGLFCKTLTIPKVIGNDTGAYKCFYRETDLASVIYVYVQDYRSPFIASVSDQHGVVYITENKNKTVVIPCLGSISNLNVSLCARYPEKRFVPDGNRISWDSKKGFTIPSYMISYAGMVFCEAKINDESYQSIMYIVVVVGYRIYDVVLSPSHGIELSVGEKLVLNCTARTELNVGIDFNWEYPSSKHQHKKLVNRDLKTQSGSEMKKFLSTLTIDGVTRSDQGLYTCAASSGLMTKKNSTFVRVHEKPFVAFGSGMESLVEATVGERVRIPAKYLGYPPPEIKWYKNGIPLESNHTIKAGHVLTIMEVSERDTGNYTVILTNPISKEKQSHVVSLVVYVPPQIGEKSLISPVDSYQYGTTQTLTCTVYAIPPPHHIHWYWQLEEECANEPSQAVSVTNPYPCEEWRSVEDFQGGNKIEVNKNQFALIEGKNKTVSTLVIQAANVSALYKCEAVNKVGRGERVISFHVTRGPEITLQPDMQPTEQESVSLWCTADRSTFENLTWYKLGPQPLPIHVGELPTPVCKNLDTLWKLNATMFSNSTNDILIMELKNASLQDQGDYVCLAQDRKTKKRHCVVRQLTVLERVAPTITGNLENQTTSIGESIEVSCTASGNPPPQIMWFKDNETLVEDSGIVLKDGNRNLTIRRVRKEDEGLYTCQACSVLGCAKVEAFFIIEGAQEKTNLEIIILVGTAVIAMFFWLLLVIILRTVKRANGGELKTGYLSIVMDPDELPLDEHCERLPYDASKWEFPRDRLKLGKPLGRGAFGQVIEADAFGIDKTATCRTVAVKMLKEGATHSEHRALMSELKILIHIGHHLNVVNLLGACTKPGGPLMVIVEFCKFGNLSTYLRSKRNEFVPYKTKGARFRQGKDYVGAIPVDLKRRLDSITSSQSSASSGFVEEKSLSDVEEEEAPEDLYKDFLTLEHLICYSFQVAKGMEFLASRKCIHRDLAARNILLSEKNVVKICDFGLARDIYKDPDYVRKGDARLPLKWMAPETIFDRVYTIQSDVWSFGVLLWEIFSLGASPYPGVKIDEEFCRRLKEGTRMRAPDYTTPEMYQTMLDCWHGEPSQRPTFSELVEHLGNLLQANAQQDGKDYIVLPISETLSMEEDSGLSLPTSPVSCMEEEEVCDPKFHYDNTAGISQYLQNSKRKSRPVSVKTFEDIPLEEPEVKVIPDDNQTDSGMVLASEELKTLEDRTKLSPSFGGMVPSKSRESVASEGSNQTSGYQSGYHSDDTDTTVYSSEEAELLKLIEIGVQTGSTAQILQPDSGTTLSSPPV
Epidermal growth factor receptor (Homo sapiens), sequence (P00533 whole entry): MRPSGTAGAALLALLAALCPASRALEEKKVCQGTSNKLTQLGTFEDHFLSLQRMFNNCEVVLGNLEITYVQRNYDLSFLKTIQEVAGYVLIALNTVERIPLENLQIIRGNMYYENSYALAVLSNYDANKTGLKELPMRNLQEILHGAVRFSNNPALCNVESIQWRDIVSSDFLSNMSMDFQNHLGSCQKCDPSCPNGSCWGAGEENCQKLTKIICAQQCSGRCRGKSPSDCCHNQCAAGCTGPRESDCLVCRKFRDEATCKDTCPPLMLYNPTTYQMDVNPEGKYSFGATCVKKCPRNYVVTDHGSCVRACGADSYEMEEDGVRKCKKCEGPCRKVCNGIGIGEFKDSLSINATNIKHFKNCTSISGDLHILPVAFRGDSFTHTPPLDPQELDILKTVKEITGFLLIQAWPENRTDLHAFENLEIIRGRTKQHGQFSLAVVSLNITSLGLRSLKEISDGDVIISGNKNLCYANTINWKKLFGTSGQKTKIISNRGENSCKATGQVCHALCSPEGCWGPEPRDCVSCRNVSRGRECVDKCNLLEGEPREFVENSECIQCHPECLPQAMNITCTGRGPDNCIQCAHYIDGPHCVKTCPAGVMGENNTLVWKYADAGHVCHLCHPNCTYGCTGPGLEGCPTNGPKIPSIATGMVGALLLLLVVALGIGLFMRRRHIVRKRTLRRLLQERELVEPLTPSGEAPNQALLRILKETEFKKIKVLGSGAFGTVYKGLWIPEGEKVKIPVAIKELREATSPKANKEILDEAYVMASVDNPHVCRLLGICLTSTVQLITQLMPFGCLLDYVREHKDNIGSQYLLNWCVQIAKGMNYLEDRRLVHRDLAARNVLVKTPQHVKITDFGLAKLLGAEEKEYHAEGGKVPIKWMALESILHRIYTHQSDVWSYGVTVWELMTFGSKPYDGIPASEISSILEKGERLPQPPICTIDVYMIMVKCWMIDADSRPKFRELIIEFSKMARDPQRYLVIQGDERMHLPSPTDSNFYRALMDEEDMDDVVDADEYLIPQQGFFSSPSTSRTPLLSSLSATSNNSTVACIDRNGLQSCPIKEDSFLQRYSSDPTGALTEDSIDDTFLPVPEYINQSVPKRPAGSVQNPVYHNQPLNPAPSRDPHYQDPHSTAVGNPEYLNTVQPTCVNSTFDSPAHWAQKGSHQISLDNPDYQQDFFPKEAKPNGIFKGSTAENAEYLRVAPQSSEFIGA
Fibroblast growth factor receptor 3, sequence (P22607 23-806 V555M limits assumed): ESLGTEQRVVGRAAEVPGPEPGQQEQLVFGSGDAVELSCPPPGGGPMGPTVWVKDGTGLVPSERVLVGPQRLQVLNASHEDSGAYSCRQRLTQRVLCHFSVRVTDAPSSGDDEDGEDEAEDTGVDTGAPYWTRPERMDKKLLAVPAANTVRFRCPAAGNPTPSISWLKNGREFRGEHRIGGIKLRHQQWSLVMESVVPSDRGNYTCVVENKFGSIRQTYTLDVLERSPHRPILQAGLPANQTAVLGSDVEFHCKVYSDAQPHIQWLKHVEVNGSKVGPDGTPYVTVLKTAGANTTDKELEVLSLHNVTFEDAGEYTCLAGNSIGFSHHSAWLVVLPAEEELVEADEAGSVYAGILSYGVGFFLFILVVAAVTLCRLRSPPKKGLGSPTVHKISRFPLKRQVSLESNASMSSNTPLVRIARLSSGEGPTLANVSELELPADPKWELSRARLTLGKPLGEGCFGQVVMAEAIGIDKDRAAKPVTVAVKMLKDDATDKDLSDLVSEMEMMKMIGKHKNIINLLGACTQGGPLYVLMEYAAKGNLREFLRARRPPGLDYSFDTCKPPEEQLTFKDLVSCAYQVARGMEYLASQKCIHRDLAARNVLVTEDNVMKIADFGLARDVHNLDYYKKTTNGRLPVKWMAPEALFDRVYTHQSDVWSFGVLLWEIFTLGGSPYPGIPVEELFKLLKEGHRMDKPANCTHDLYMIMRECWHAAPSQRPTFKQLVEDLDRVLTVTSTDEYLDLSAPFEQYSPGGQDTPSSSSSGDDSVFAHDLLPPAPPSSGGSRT
Platelet-derived growth factor receptor beta (Homo sapiens), sequence (P09619 whole entry): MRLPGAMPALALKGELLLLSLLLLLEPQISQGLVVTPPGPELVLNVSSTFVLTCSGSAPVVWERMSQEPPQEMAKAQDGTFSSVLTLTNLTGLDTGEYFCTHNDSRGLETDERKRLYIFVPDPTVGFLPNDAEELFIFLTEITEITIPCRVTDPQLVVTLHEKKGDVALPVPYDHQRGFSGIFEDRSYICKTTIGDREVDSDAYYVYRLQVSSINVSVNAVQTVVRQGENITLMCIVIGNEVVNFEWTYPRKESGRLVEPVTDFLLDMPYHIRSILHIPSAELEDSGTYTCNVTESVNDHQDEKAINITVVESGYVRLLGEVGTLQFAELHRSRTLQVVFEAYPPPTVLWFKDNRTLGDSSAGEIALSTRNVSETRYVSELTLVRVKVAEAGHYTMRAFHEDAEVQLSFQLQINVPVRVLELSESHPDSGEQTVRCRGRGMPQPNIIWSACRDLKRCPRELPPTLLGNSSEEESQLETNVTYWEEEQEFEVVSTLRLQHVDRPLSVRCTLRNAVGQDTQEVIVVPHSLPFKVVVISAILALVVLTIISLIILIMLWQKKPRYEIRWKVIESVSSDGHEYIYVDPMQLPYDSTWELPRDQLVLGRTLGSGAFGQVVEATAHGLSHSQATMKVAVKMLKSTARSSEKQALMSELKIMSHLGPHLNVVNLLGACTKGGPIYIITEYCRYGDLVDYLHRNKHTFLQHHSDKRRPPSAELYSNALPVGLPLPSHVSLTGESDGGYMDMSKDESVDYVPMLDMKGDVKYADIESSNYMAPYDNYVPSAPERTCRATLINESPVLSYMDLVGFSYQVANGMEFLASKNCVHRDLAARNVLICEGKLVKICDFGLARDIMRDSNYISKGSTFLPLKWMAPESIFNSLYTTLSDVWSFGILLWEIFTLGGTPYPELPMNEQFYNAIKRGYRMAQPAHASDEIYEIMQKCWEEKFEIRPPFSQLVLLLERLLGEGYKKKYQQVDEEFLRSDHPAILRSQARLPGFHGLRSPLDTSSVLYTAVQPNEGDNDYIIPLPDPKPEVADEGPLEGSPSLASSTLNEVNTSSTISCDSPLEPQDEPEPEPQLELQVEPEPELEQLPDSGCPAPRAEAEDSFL

Q: What does the source list for `C=CC(=O)Nc1ccc(Nc2nc(Nc3ccc(N4C[C@@H](C)N[C@@H](C)C4)c(OC)c3)ncc2Cl)cc1Cl`?
A: IC50 (NCI-H1581 [1]): 18 nM; Cmax [2]: 2250 ng/mL; inhibition (A549 [3]): Active; inhibition (Mus musculus [4]): Active; Activity [5]: Non-toxic; Cmax [6]: 816 ng/mL; Activity [7]: Non-toxic; inhibition (Mus musculus [8]): Active; Activity [9]: Non-toxic; inhibition in vivo at 30 mg/kg [10]: 48%; Activity (L6): Active; IC50 [11]: 4.3 nM; inhibition [12]: Not active; Moderate To Weak Inhibitory Activity Observed; Activity (NCI-H1581 [13]): Active; inhibition (A549 [14]): Active; Activity [15]: Non-toxic; Activity [16]: Non-toxic; Activity [17]: Non-toxic; Activity [18]: Non-toxic; inhibition [19]: Not active; Moderate To Weak Inhibitory Activity Observed; half-life [20]: 3.55 h; Activity [21]: Non-toxic; Activity [22]: Non-toxic; inhibition (A549 [23]): Dose-dependent-effect; Activity [24]: Not active; Reduced Affinities Observed; inhibition (Mus musculus [25]): Active; inhibition [26]: Not active; Moderate To Weak Inhibitory Activity Observed; Activity [27]: Non-toxic; IC50 [28]: 15.6 nM; inhibition (NCI-H1581 [29]): Active; Activity [30]: Non-toxic; Activity [31]: Non-toxic; Activity [32]: Non-toxic; inhibition (NCI-H1581 [33]): Active; inhibition in vivo at 60 mg/kg [34]: 69%
